{
  "source": "paper PMC3217850",
  "about": "“BACE-1 inhibition prevents the γ-secretase inhibitor evoked Aβ rise in human neuroblastoma SH-SY5Y cells” (Journal of Biomedical Science, 2011)",
  "key": {"AD patients": {"test_system": "AD patients", "parameters": "method as in earlier work", "settings": "phase III, AD patients ref 14; cited from earlier work"}, "SH-SY5Y APPwt cells [1]": {"test_system": "SH-SY5Y APPwt cells", "test": "Aβ40 secretion from SH-SY5Y APPwt cells, ELISA of culture medium", "type": "cell-based, human", "settings": "for IC50: Homo sapiens, 24 h", "method": "(§1) The human neuroblastoma cell line SH-SY5Y was purchased from European Collection of Cell Cultures (ECACC). Cells were grown in DMEM/Ham's F-12 (PAA), supplemented with 1% non-essential amino acids (PAA) and 10% Fetal Bovine Serum (PAA). Cells were maintained at 37°C in a humidified atmosphere containing 5% CO2.\n(§2) SH-SY5Y cells were stably transfected with plasmids carrying human APPwt or APPswe gene. APP gene was purchased from Geneservice Ltd (clone sequence BC065529; clone MGC75167) and the APPswe mutation was generated using a QuikChange® Site-Directed Mutagenesis Kit (Stratagene). APPwt and APPswe genes were cloned into a mammalian expression vector pcDNA3.1 and the expression was under the control of CMV promotor. The cells were plated at the density of 6.25 × 10^4 cells/cm^2 in 6-well culture dishes (Sarstedt) and each well was transfected with 4 μg plasmid DNA. Lipofectamine™2000 (InVitrogen) was used as a transfection reagent according to manufacturer's instructions. The transfected cells were selected with 400 μg/ml G418 (PAA).\n(§3) Cells were plated at a density of 6.25 × 10^4 cells/cm^2 in 96-well cell culture plates (TRP) for Aβ measurements with ELISA or in 6-well culture dishes (Sarstedt) for Western blot. The day after the plating of the cells, the cultures were treated with various concentrations of γ-secretase inhibitor LY450139 or the BACE inhibitor for 24 hours. Stock solutions of inhibitors were prepared in dimethyl-sulfoxide (DMSO). All cultures including the control cells received equal amounts of DMSO, the final concentration being 0.1%. All the results were from two to three separate experiments and the data presented as means ± SEM.\n(§4) The secreted Aβ40 and Aβ42 peptides in cell culture media were measured using human amyloid β40 or β42 ELISA kits from Millipore. The absorbance was measured at 450 nm by Microplate reader (Molecular Devices). Data from inhibitor-treated cell cultures was expressed as a percent of untreated controls and the inhibition curves were analysed by non-linear regression using Graph Pad Prism."}, "SH-SY5Y APPwt cells [2]": {"test_system": "SH-SY5Y APPwt cells", "test": "Western blot (6E10 antibody) of APP substrate in cell lysates", "type": "cell-based, human", "settings": "3, 30 or 300 nM LY450139, 24 h", "method": "as §3\nSH-SY5Y cells were lysed in buffer containing 50 mM Tris-HCl pH 8.0, 150 mM NaCl, 1% Triton X-100, 1 mM EDTA, 1 mM Na3VO4 and 1 complete protease inhibitor cocktail tablet (Roche Diagnostics)/10 ml buffer. The cells were incubated with lysis buffer for 10 minutes on ice before scraping the cells from the dishes. Cell lysates were centrifuged at 14 000 rpm for 15 minutes. The protein content in the supernatants was measured using Pierce® 660 nm Protein Assay kit. Samples, containing 20 μg protein, were resolved in 7% NuPAGE®Tris-Acetate gels (InVitrogen) using Tris-Acetate SDS running buffer (InVitrogen). […] Average density of the bands was measured in ChemiDoc™XRS (Bio-Rad) by using Quantity One software."}, "Aβ [3]": {"test_system": "Aβ", "parameters": "method as in PMID 19360898", "settings": "healthy volunteers ref 3; cited from earlier work"}, "SH-SY5Y APPswe cells [4]": {"test_system": "SH-SY5Y APPswe cells", "test": "Aβ40 secretion from SH-SY5Y APPswe cells, ELISA of culture medium", "type": "cell-based, human", "settings": "for IC50: Homo sapiens, 24 h", "method": "as §1, §2, §3, §4"}, "SH-SY5Y APPwt cells [5]": {"test_system": "SH-SY5Y APPwt cells", "test": "Aβ42 secretion from SH-SY5Y APPwt cells, ELISA of culture medium", "type": "cell-based, human", "method": "as §1\nas §2, with “The transfected cells were selected with 400 μg/ml G418 (PAA).” left out\nas §4"}, "SH-SY5Y APPswe cells [6]": {"test_system": "SH-SY5Y APPswe cells", "test": "Aβ42 secretion from SH-SY5Y APPswe cells, ELISA of culture medium", "type": "cell-based, human", "settings": "3 nM LY450139, SH-SY5Y APPswe", "method": "as §1\nas §2, with “The transfected cells were selected with 400 μg/ml G418 (PAA).” left out\nas §4"}, "Aβ [7]": {"test_system": "Aβ", "parameters": "method as in PMID 20363853", "settings": "preclinically ref 13; cited from earlier work"}},
  "data": [
    {"molecule": "CC(C)[C@H](O)C(=O)N[C@@H](C)C(=O)N[C@@H]1C(=O)N(C)CCc2ccccc21", "note": "[LY450139, (N)-((S)-2-hydroxy-3-methyl-butyryl)-1-(L-alaninyl)-(S)-amino-3-methyl-2,3,4,5-tetrahydro-1H-3-benzazepin-2-one dihydrate]", "values": [
      {"measurement": "cognitive symptoms versus placebo", "setting": "AD patients", "result": "fared worse than placebo-treated controls"},
      {"measurement": "Aβ40 levels increase above baseline", "setting": "SH-SY5Y APPwt cells [1]; 3 nM LY450139, 24 h, SH-SY5Y APPwt", "result": 60, "unit": "%"},
      {"measurement": "effect on basal Aβ40 levels", "setting": "SH-SY5Y APPwt cells [1]; 30 nM LY450139 per se, SH-SY5Y APPwt", "result": "does not affect basal Aβ40 levels"},
      {"measurement": "reduction of Aβ40 secretion compared to control", "setting": "SH-SY5Y APPwt cells [1]; 300 nM LY450139, 24 h, SH-SY5Y APPwt", "result": 80, "unit": "%"},
      {"measurement": "fold less potent at inhibiting Aβ40 secretion from APPwt cells compared to APPswe cells", "setting": "SH-SY5Y APPwt cells [1]; APPwt vs APPswe IC50", "result": "~ 5 fold"},
      {"measurement": "IC50", "setting": "SH-SY5Y APPwt cells [1]; SH-SY5Y APPwt, inhibitory phase at > 30 nM, approximate", "result": "~90", "unit": "nM"},
      {"measurement": "Aβ40 production 2 - 6 hours after washout", "setting": "SH-SY5Y APPwt cells [1]; LY450139 pre-treated vs control cells, data not shown", "result": "did not differ"},
      {"measurement": "Aβ40 levels increase with 3 nM LY450139 in second 24 h", "setting": "SH-SY5Y APPwt cells [1]; after 300 nM LY450139 for first 24 h, compared to cells given fresh medium in second 24 h, SH-SY5Y APPwt", "result": 60, "unit": "%"},
      {"measurement": "Aβ40 secretion during 24 h after washout", "setting": "SH-SY5Y APPwt cells [1]; pre-treated 300 nM LY450139 24 h, then fresh medium 24 h, SH-SY5Y APPwt", "result": "did not differ from control cells"},
      {"measurement": "substrate (APP bands, 6E10) level", "setting": "SH-SY5Y APPwt cells [2]", "result": "accumulation of substrate"},
      {"measurement": "effect on Aβ levels in the cerebrospinal fluid", "setting": "Aβ [3]", "result": "lower Aβ levels"},
      {"measurement": "effect on Aβ40 secretion per se", "setting": "SH-SY5Y APPswe cells [4]; 3 nM LY450139, SH-SY5Y APPswe", "result": "does not affect Aβ40-secretion per se"},
      {"measurement": "remaining Aβ40 secretion", "setting": "SH-SY5Y APPswe cells [4]; 30 nM LY450139, SH-SY5Y APPswe", "result": "20-30%"},
      {"measurement": "IC50", "setting": "SH-SY5Y APPswe cells [4]; SH-SY5Y APPswe, monophasic", "result": 18, "unit": "nM"},
      {"measurement": "Aβ40 levels with 3 nM LY450139 in second 24 h", "setting": "SH-SY5Y APPswe cells [4]; after 300 nM LY450139 for first 24 h, SH-SY5Y APPswe", "result": "did not lead to increased Aβ40 levels"},
      {"measurement": "secreted Aβ42 levels increase compared to controls", "setting": "SH-SY5Y APPwt cells [5]; 3 nM LY450139, SH-SY5Y APPwt", "result": 70, "unit": "%"},
      {"measurement": "Aβ42 secretion after washout", "setting": "SH-SY5Y APPwt cells [5]; 300 nM LY450139 24 h, then fresh medium 24 h, SH-SY5Y APPwt", "result": "returned to control levels"},
      {"measurement": "effect on secreted Aβ42 levels", "setting": "SH-SY5Y APPswe cells [6]", "result": "not affected"}
    ]},
    {"molecule": "CCC[C@H](N[C@H]1CCc2cc(F)cc(F)c2C1)C(=O)Nc1cn(C(C)(C)CNCC(C)(C)C)cn1", "note": "[PF-3084014]", "values": [
      {"measurement": "Aβ rebound/rise attribute", "setting": "Aβ [7]", "result": "lack this attribute"}
    ]},
    {"molecule": "CCc1cn2c3c(cc(C(=O)N[C@@H](Cc4ccccc4)[C@H](O)CNC4CC4)cc13)N(C)S(=O)(=O)CC2", "note": "[BACE inhibitor, N-[(1S,2R)-1-Benzyl-3-(cyclopropylamino)-2-hydroxypropyl]-7-ethyl-1-methyl-3,4-dihydro-1H-[1,2, 5]thiadiazepino[3,4,5-hi-]indole-9-carboxamide 2,2-Dioxide]", "values": [
      {"measurement": "IC50", "setting": "SH-SY5Y APPwt cells [1]; BACE inhibitor alone, SH-SY5Y APPwt", "result": 7, "unit": "nM"},
      {"measurement": "concentration required to abolish the LY450139-evoked Aβ40 rise completely", "setting": "SH-SY5Y APPwt cells [1]; SH-SY5Y APPwt", "result": 30, "unit": "nM"},
      {"measurement": "IC50", "setting": "SH-SY5Y APPswe cells [4]; BACE inhibitor alone, SH-SY5Y APPswe", "result": 18, "unit": "nM"}
    ]}
  ]
}
